Read-outs that look alike come from different tables or passages of the source.
Columns and labels:
Panc-1 human cell line = experiment: Cytotoxicity on Panc-1, xCELLigence SP, IC50 after 24 h, 48 h, 72 h and 96 h (Example 22)
[1] = system: PANC-1 (human pancreatic carcinoma) cells; experiment: Impedance-based viability assay (xCELLigence SP), long treatment; type: cell-based; conditions: 72 h, read-out: cytotoxicity expressed in IC50, PANC-1
From the text: (Gibco®/Invitrogen Corporation, New York, NY, USA).
Data obtained from each experiment represent mathematical averages.

[2] = system: MDA-MB-453 (breast, carcinoma) cells; experiment: Cell viability assay, CellTiter-Glo (Example 21); type: cell-based, human; conditions: 72 h treatment
Method in brief: (§1)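 Seeding density per line: Panc-1 750, FaDu 1000, Detroit 562 and MDA-MB-453 1500 cells/well. Viability after treatment read by CellTiter-Glo luminescence; dose-response curves fitted by four-parameter variable-slope non-linear regression.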

[3] = system: SCC-25 (tongue, squamous cell carcinoma) cells; experiment: Cell viability assay, CellTiter-Glo (Example 21); type: cell-based, human; conditions: 72 h treatment
Method in brief: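 SCC-25 tongue squamous cell carcinoma cells were seeded at 1000 cells/well in flat-bottomed white 96 well plates, treated with compound, and viability was then determined with the CellTiter-Glo luminescent assay (Promega) following the manufacturer's instructions. Luminescence was read on a BioTek Synergy 2 Multi-Mode Reader.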

[4] = system: LNCaP (prostate, carcinoma) cells; experiment: Cell viability assay, CellTiter-Glo (Example 21); type: cell-based, human; conditions: 72 h
Method in brief: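 LNCaP prostate carcinoma cell viability was assessed with the CellTiter-Glo® luminescent assay (Promega), following the manufacturer's instructions. Cells were seeded at 1500 cells/well into flat-bottomed white 96 well plates, treated, and then luminescence was read on a BioTek Synergy 2 Multi-Mode Reader. Dose-response curves were fitted in GraphPad Prism 8.4.2 by four-parameter variable-slope non-linear regression.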

[5] = system: Panc-1 (pancreas, carcinoma) cells; experiment: Cell viability assay, CellTiter-Glo (Example 21); type: cell-based, human; conditions: 72 h treatment
Method in brief: as §1

[6] = system: DU 145 (prostate, carcinoma) cells; experiment: Cell viability assay, CellTiter-Glo (Example 21); type: cell-based, human; conditions: 72 h
Method in brief: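 DU 145 cancer cell viability was assessed with the CellTiter-Glo® luminescent assay (Promega, Madison, WI, USA), following the manufacturer's instructions. Cells were seeded at 1000 cells/well in flat-bottomed white 96 well plates, and after treatment luminescence was read on a BioTek Synergy 2 Multi-Mode Reader.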

[7] = system: EBC-1 (lung, squamous cell carcinoma) cells; experiment: Cell viability assay, CellTiter-Glo (Example 21); type: cell-based, human; conditions: 72 h treatment
Method in brief: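 EBC-1 lung squamous cell carcinoma cells were seeded at 1000 cells/well in flat-bottomed white 96 well plates. After compound treatment, viability was measured with the CellTiter-Glo luminescent assay following the manufacturer's instructions, and luminescence was read on a BioTek Synergy 2 Multi-Mode microplate reader.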

[8] = system: FaDu (pharynx, squamous cell carcinoma) cells; experiment: Cell viability assay, CellTiter-Glo (Example 21); type: cell-based, human; conditions: 72 h treatment
Method in brief: as §1

[9] = system: MIA PaCa-2 (pancreas, carcinoma) cells; experiment: Cell viability assay, CellTiter-Glo (Example 21); type: cell-based, human; conditions: 72 h treatment
Method in brief: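 MIA PaCa-2 pancreatic carcinoma cells were seeded at 1000 cells/well in flat-bottomed white 96 well plates (BRANDplates®, cat. no.: 781965) and treated with compound. Viability was then determined with the CellTiter-Glo® luminescent cell viability assay (Promega) following the manufacturer's instructions, with luminescence read on a BioTek Synergy 2 Multi-Mode Reader.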

[10] = system: Capan-1 (pancreas, adenocarcinoma) cells; experiment: Cell viability assay, CellTiter-Glo (Example 21); type: cell-based, human; conditions: 72 h treatment
Method in brief: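 Capan-1 cells were seeded at 1000 cells/well in flat-bottomed white 96 well plates (BRANDplates®), with density optimized for cell size and growth rate. Following compound treatment, viability was measured with the CellTiter-Glo® luminescent assay (Promega) per the manufacturer's instructions, reading luminescence on a BioTek Synergy 2 Multi-Mode Reader.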

[11] = system: MDA-MB-231 (breast, adenocarcinoma) cells; experiment: Cell viability assay, CellTiter-Glo (Example 21); type: cell-based, human; conditions: 72 h treatment
Method in brief: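 MDA-MB-231 breast adenocarcinoma cells were seeded at 1500 cells/well in flat-bottomed white 96 well plates (BRANDplates®, cat. no.: 781965). Following compound exposure, viability was assessed with the CellTiter-Glo® luminescent assay (Promega) following the manufacturer's protocol, and luminescence was read on a BioTek Synergy 2 Multi-Mode Reader.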

[12] = system: Detroit 562 (pharynx, carcinoma) cells; experiment: Cell viability assay, CellTiter-Glo (Example 21); type: cell-based, human; conditions: 72 h treatment
Method in brief: as §1

[13] = system: PC-3 (prostate, adenocarcinoma) cells; experiment: Cell viability assay, CellTiter-Glo (Example 21); type: cell-based, human; conditions: 72 h treatment
Method in brief: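 PC-3 prostate adenocarcinoma cells were seeded at 1000 cells/well in flat-bottomed white 96 well plates and treated with compounds. Viability was then determined with the CellTiter-Glo® luminescent assay (Promega) following the manufacturer's instructions, with luminescence read on a BioTek Synergy 2 Multi-Mode Reader.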

[14] = system: Panc1 pancreatic cancer cell line; experiment: CellTiter-Glo IC50 (Example 19); type: cell-based; conditions: Homo sapiens, PANC-1, 72 h
Method in brief: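 Cultures grown under ATCC conditions at 37° C with 5% CO2 are plated at 1000 cells/well, treated with compound, then lysed with CellTiter-Glo after medium removal. Luminescence gives viability as a fraction of untreated cells; IC50 is taken from a log(inhibitor) vs response fit.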

SMILES: [N-]=[N+]=Nc1cccc(CN2CCC3=C(C2)C(=O)N(Cc2ccc(C(F)(F)F)cc2)C2=NCCN23)c1 [I/111, 7-(3-Azidobenzyl)-4-(4-(trifluoromethyl)benzyl)-2,4,6,7,8,9-hexahydroimidazo[1,2-a]pyrido[3,4-e]pyrimidin-5(1H)-one]
- IC50 (Panc-1 human cell line; PANC-1, 72 h, read-out: IC50 (72 h) [nM]): 20.1 ± 1.68 nM
- IC50 (Panc-1 human cell line; PANC-1, 96 h, read-out: IC50 (96 h) [nM]): 8.58 ± 0.256 nM
- IC50 [1]: 10 nM
- MDA-MB-453 (breast, carcinoma) cell viability (% of control) ([2]; 3.7 nM): 107.2 ± 5.9 % of control
- MDA-MB-453 (breast, carcinoma) cell viability (% of control) ([2]; 11.1 nM): 45.7 ± 5.0 % of control
- MDA-MB-453 (breast, carcinoma) cell viability (% of control) ([2]; 100 nM): 30.3 ± 1.0 % of control
- MDA-MB-453 (breast, carcinoma) cell viability (% of control) ([2]; 300 nM): 28.8 ± 0.4 % of control
- SCC-25 (tongue, squamous cell carcinoma) cell viability (% of control) ([3]; 3.7 nM): 98.3 ± 4.0 % of control
- SCC-25 (tongue, squamous cell carcinoma) cell viability (% of control) ([3]; 11.1 nM): 79.0 ± 11.0 % of control
- SCC-25 (tongue, squamous cell carcinoma) cell viability (% of control) ([3]; 100 nM): 32.5 ± 1.2 % of control
- SCC-25 (tongue, squamous cell carcinoma) cell viability (% of control) ([3]; 300 nM): 36.4 ± 0.9 % of control
- LNCaP cell viability ([4]; 3.7 nM): 97.1 ± 2.6 % of control
- LNCaP cell viability ([4]; 11.1 nM): 32.4 ± 2.3 % of control
- LNCaP cell viability ([4]; 100 nM): 11.8 ± 0.7 % of control
- LNCaP cell viability ([4]; 300 nM): 11.7 ± 0.7 % of control
- Panc-1 (pancreas, carcinoma) cell viability (% of control) ([5]; 3.7 nM): 106.1 ± 7.3 % of control
- Panc-1 (pancreas, carcinoma) cell viability (% of control) ([5]; 11.1 nM): 99.6 ± 1.4 % of control
- Panc-1 (pancreas, carcinoma) cell viability (% of control) ([5]; 100 nM): 50.1 ± 2.0 % of control
- Panc-1 (pancreas, carcinoma) cell viability (% of control) ([5]; 300 nM): 49.7 ± 1.2 % of control
- DU 145 cell viability ([6]; 3.7 nM): 93.6 ± 6.9 % of control
- DU 145 cell viability ([6]; 11.1 nM): 33.8 ± 5.0 % of control
- DU 145 cell viability ([6]; 100 nM): 7.1 ± 2.0 % of control
- DU 145 cell viability ([6]; 300 nM): 8.1 ± 1.9 % of control
- EBC-1 (lung, squamous cell carcinoma) cell viability (% of control) ([7]; 3.7 nM): 94.1 ± 3.0 % of control
- EBC-1 (lung, squamous cell carcinoma) cell viability (% of control) ([7]; 11.1 nM): 54.0 ± 6.5 % of control
- EBC-1 (lung, squamous cell carcinoma) cell viability (% of control) ([7]; 100 nM): 20.6 ± 0.6 % of control
- EBC-1 (lung, squamous cell carcinoma) cell viability (% of control) ([7]; 300 nM): 20.0 ± 0.0 % of control
- FaDu (pharynx, squamous cell carcinoma) cell viability (% of control) ([8]; 3.7 nM): 97.7 ± 3.9 % of control
- FaDu (pharynx, squamous cell carcinoma) cell viability (% of control) ([8]; 11.1 nM): 66.8 ± 12.0 % of control
- FaDu (pharynx, squamous cell carcinoma) cell viability (% of control) ([8]; 100 nM): 21.7 ± 5.4 % of control
- FaDu (pharynx, squamous cell carcinoma) cell viability (% of control) ([8]; 300 nM): 22.1 ± 4.8 % of control
- MIA PaCa-2 (pancreas, carcinoma) cell viability (% of control) ([9]; 3.7 nM): 100.2 ± 8.8 % of control
- MIA PaCa-2 (pancreas, carcinoma) cell viability (% of control) ([9]; 11.1 nM): 90.6 ± 19.3 % of control
- MIA PaCa-2 (pancreas, carcinoma) cell viability (% of control) ([9]; 100 nM): 16.5 ± 6.7 % of control
- MIA PaCa-2 (pancreas, carcinoma) cell viability (% of control) ([9]; 300 nM): 16.2 ± 6.9 % of control
- Capan-1 (pancreas, adenocarcinoma) cell viability (% of control) ([10]; 3.7 nM): 102.5 ± 4.0 % of control
- Capan-1 (pancreas, adenocarcinoma) cell viability (% of control) ([10]; 11.1 nM): 95.1 ± 8.2 % of control
- Capan-1 (pancreas, adenocarcinoma) cell viability (% of control) ([10]; 100 nM): 31.7 ± 1.7 % of control
- Capan-1 (pancreas, adenocarcinoma) cell viability (% of control) ([10]; 300 nM): 30.8 ± 3.3 % of control
- MDA-MB-231 (breast, adenocarcinoma) cell viability (% of control) ([11]; 3.7 nM): 102.7 ± 2.8 % of control
- MDA-MB-231 (breast, adenocarcinoma) cell viability (% of control) ([11]; 11.1 nM): 98.5 ± 2.1 % of control
- MDA-MB-231 (breast, adenocarcinoma) cell viability (% of control) ([11]; 100 nM): 56.9 ± 2.2 % of control
- MDA-MB-231 (breast, adenocarcinoma) cell viability (% of control) ([11]; 300 nM): 52.8 ± 2.7 % of control
- Detroit 562 (pharynx, carcinoma) cell viability (% of control) ([12]; 3.7 nM): 48.0 ± 21.7 % of control
- Detroit 562 (pharynx, carcinoma) cell viability (% of control) ([12]; 11.1 nM): 32.8 ± 3.7 % of control
- Detroit 562 (pharynx, carcinoma) cell viability (% of control) ([12]; 100 nM): 26.8 ± 2.8 % of control
- Detroit 562 (pharynx, carcinoma) cell viability (% of control) ([12]; 300 nM): 28.8 ± 3.8 % of control
- PC-3 (prostate, adenocarcinoma) cell viability (% of control) ([13]; 3.7 nM): 106.8 ± 2.4 % of control
- PC-3 (prostate, adenocarcinoma) cell viability (% of control) ([13]; 11.1 nM): 75.5 ± 5.9 % of control
- PC-3 (prostate, adenocarcinoma) cell viability (% of control) ([13]; 100 nM): 32.0 ± 3.2 % of control
- PC-3 (prostate, adenocarcinoma) cell viability (% of control) ([13]; 300 nM): 31.3 ± 3.0 % of control
- IC50 [14]: 9 nM

Source: patent US20230295162A1 (EÖTVÖS LORÁND TUDOMÁNYEGYETEM, priority 2020, published 2023)
